Common to all, as to format: functional
One assay concerns Staphylococcus aureus. Put plainly: Antibacterial activity against Staphylococcus aureus ATCC 29213 at 100 ug/disk by standard disk assay. The following applies: read-out: IZ.
For another assay, the system named is Bacillus subtilis. Put plainly: Antibacterial activity against Bacillus subtilis ATCC 6051 at 100 ug/disk by standard disk assay. As to conditions: read-out: IZ.
In a further assay the test system is Sordaria fimicola. As to the kind of experiment: Antifungal activity against Sordaria fimicola NRRL 6459 assessed as reduction in radial growth at 200 ug/disk by centerpoint inoculation disk assay. Details: scale not given: the % may be the effect or the level left.
Another assay deals with Ascobolus. Put plainly: Antifungal activity against Ascobolus furfuraceus NRRL 6460 assessed as reduction in radial growth at 200 ug/disk by centerpoint inoculation disk assay. Details: scale not given: the % may be the effect or the level left.
For the next assay, the system named is Candida albicans. As to the kind of experiment: Antifungal activity against Candida albicans ATCC 14053 at 200 ug/disk by standard disk assay. As to conditions: read-out: IZ.

We go through four compounds from ChEMBL document CHEMBL1159213, “Terezines A-D: new amino acid-derived bioactive metabolites from the coprophilous fungus Sporormiella teretispora” (1995).

`COC1=N[C@@](OC)(C(C)C)C(=O)N[C@@]1(O)[C@H](O)c1ccccc1` [TEREZINE C]: the zone of inhibition at 100 µg/disc in the assay on Staphylococcus aureus and in the assay with Bacillus subtilis was 8 mm each time. In addition, in the assay with Sordaria fimicola, the Activity is given as 41%.
Take `COc1nc(C(C)C)c(O)nc1[C@H](O)c1ccccc1` [TEREZINE A]: the Activity in the assay on Ascobolus and with Sordaria fimicola was 95% throughout. Besides, the zone of inhibition at 100 µg/disc in the assay with Staphylococcus aureus and in the assay with Bacillus subtilis was 8 mm in each case. Further, the zone of inhibition at 200 µg/disc in the assay on Candida albicans amounted to 8 mm.
With `COC1=N[C@](OC)(C(C)C)C(=O)N[C@@]1(O)[C@H](O)c1ccccc1` [TEREZINE B], the zone of inhibition at 100 µg/disc with Bacillus subtilis is 8 mm.
As to `CC(C)=CCc1cccc2c(C[C@@H]3NC(=O)[C@H](C)NC3=O)c[nH]c12` [TEREZINE D], in the assay with Sordaria fimicola, the Activity turned out to be 50%.
